The source made the active and inactive calls. Unless noted, the rule behind the calls is not given here. Residues, ends and D or L forms follow the SMILES beside them.
Key:
Assay type in all cases: subcellular
[1] = target: Core antigen (Hepatitis B virus) (UniProt Q03732); test: Inhibition of Hepatitis B virus capsid formation at 10 uM treated during cell-free HBV Cp T33N mutant synthesis using wheat germ lysates and HBV Cp RNA by Denatured capsid assay based western blot analysis
Core antigen = Core antigen (Hepatitis B virus, UniProt Q03732); test: Inhibition of Hepatitis B virus capsid formation treated during cell-free wild type HBV Cp synthesis using wheat germ lysates and HBV Cp RNA by Denatured capsid assay based western blot analysis
Core antigen, sequence (Q03732 whole entry): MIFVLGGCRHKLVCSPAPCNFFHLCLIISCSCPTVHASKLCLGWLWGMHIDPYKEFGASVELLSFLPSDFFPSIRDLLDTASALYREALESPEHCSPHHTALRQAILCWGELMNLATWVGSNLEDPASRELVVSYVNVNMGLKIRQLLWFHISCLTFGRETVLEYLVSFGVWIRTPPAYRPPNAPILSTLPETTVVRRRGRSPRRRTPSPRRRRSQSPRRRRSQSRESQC

[2] = target: Core antigen (Hepatitis B virus) (UniProt Q03732); test: Inhibition of Hepatitis B virus capsid formation at 100 uM treated during cell-free wild type HBV Cp synthesis using wheat germ lysates and HBV Cp RNA by Native capsid assay based western blot analysis
[3] = target: Core antigen (Hepatitis B virus) (UniProt Q03732); test: Inhibition of Hepatitis B virus capsid formation at 100 uM treated during cell-free HBV Cp T33N mutant synthesis using wheat germ lysates and HBV Cp RNA by Denatured capsid assay based western blot analysis
[4] = target: Core antigen (Hepatitis B virus) (UniProt Q03732); test: Inhibition of Hepatitis B virus capsid formation at 3 uM treated during cell-free wild type HBV Cp synthesis using wheat germ lysates and HBV Cp RNA by Native capsid assay based western blot analysis

Core antigen (Hepatitis B virus), sequence (Q03732 as listed by the source): as the sequence (Q03732 whole entry) above

## CC[C@H](C)[C@H](NC(=O)[C@H](Cc1c[nH]cn1)NC(=O)[C@H](Cc1ccccc1)NC(=O)[C@H](Cc1c[nH]c2ccccc12)NC(=O)[C@H](CC(C)C)NC(=O)[C@H](CC(C)C)NC(=O)[C@H](CCC(N)=O)NC(=O)[C@H](CCCNC(=N)N)NC(=O)[C@H](Cc1ccccc1)NC(=O)[C@H](CCCCN)NC(=O)[C@H](CC(C)C)NC(=O)CNC(=O)[C@H](CCSC)NC(=O)[C@H](CC(N)=O)NC(=O)[C@@H](NC(C)=O)C(C)C)C(N)=O
[1]
  inhibition: Active; Same Efficacy As Gls4 Observed
Core antigen
  IC50: 97.8 µM
[2]
  inhibition: Active; Significantly Inhibited Hbv-Capsid Formation Of 72 Peptides Tested
[3]
  inhibition: Active; Comparable Activity To Gls4, Positive Control

## CCOC(=O)C1=C(CN2CCOCC2)NC(c2nccs2)=NC1c1ccc(F)cc1Br (stereo unspecified)
[4]
  inhibition: Active

## CC[C@H](C)[C@H](NC(=O)[C@H](Cc1c[nH]cn1)NC(=O)[C@H](Cc1ccccc1)NC(=O)[C@H](Cc1c[nH]c2ccccc12)NC(=O)[C@H](CC(C)C)NC(=O)[C@H](CC(C)C)NC(=O)[C@H](CCC(N)=O)NC(=O)[C@H](CCCNC(=N)N)NC(=O)[C@H](Cc1ccccc1)NC(=O)[C@H](CCCCN)NC(C)=O)C(=O)N[C@@H](CO)C(=O)N[C@@H](CS)C(=O)N[C@@H](CC(C)C)C(=O)N[C@H](C(=O)N[C@@H](Cc1ccccc1)C(N)=O)[C@@H](C)O (Ac-KFRQLLWFHISCLTF-NH2)
[1]
  inhibition: Active; Greater Efficacy Compared To Gls4 Observed
Core antigen
  IC50: 43.7 µM
[2]
  inhibition: Active; Significantly Inhibited Hbv-Capsid Formation Of 72 Peptides Tested
[3]
  inhibition: Active; Comparable Activity To Gls4, Positive Control

## CC(C)[C@H](NC(=O)[C@@H](NC(=O)[C@@H](NC(=O)[C@@H](N)[C@@H](C)O)[C@@H](C)O)C(C)C)C(=O)N[C@@H](CCCNC(=N)N)C(=O)N[C@@H](CCCNC(=N)N)C(=O)N[C@@H](CCCNC(=N)N)C(=O)NCC(=O)N[C@@H](CCCNC(=N)N)C(=O)N[C@@H](CO)C(=O)N1CCC[C@H]1C(=O)N[C@@H](CCCNC(=N)N)C(=O)N[C@@H](CCCNC(=N)N)C(=O)N[C@@H](CCCNC(=N)N)C(=O)N[C@H](C(N)=O)[C@@H](C)O (H-TTVVRRRGRSPRRRT-NH2)
[2]
  inhibition: inactive

## CSCC[C@H](NC(=O)[C@H](CC(N)=O)NC(=O)[C@@H](NC(=O)[C@H](CC(N)=O)NC(=O)[C@@H](NC(=O)[C@H](Cc1ccc(O)cc1)NC(=O)[C@H](CO)NC(=O)[C@@H](N)C(C)C)C(C)C)C(C)C)C(=O)NCC(=O)N[C@@H](CC(C)C)C(=O)N[C@@H](CCCCN)C(=O)N[C@@H](Cc1ccccc1)C(=O)N[C@@H](CCCNC(=N)N)C(=O)N[C@@H](CCC(N)=O)C(=O)N[C@@H](CC(C)C)C(N)=O (H-VSYVNVNMGLKFRQL-NH2)
[2]
  inhibition: inactive
